Reference: patent US20220354825A1, “PHARMACEUTICAL COMPOSITION FOR PREVENTION OR TREATMENT OF INFLAMMATORY DISEASES COMPRISING NAPHTHOQUINONE DERIVATIVE” (LMITO THERAPEUTICS INC., priority 2019, published 2022)

Legend:
NQO1 = NQO1 (Homo sapiens, UniProt P15559); experiment: In vitro NQO1 enzyme activity assay (cytochrome C reduction); assay type: biochemical; settings: NQO1 2 ng
Description: In order to evaluate the enzymatic activities of compounds on NQO1, the experiments were performed as follows:
A compound to measure NQO1 enzyme activity was dissolved in DMSO to prepare a 10 mM stock solution, which was then diluted with DMSO to prepare a working solution at a concentration of 250 μM. For an enzyme reaction solution, 50 μL of 1.54 mM cytochrome C solution was added to 900 μL of 50 mM Tris-HCl (pH 7.5) solution containing 0.14% BSA, and then the prepared working solution at 250 μM was added. After adding 20 μL of 100 ng/ml NQO1 protein, […] solution was added so as to adjust the total volume to 1 mL, and then the change of absorbance was measured at 550 nm for 10 minutes. The change of absorbance was measured at 550 nm for 10 minutes using 1 mL cuvette. The reaction rate was observed through the increase in absorbance as cytochrome C was reduced at 550 nm for 10 minutes, to obtain an absorbance value, and the activity for NQO1 was measured as the reduced amount of cytochrome C (nmol reduced cytochrome C/min/μg NQO1 protein).
Absorption coefficient of Cytochrome C: 21.1 (μmol/mL)-1 cm^−1
Equipment=Cary 100 UV-Vis Spectrophotometer

[1] = system: primary bone marrow-derived macrophages (BMDMs); experiment: Mitochondrial reactive oxygen species measurement (MitoSox, FACS); assay type: cell-based, C57BL/6 mouse; settings: LPS/ATP + 1, 5, 10 μM compound
Description: The primary bone marrow-derived macrophages (BMDMs) isolated from C57BL/6 mouse were incubated in DMEM medium involving macrophage colony-stimulating factor (M-CSF; R&D Systems, 416-ML) during 3 to 5 days. Isolated BMDMs were stained by 1 μM MitoSox (Molecular Probes M36008) for 15 min. After washing the cells into PBS and collecting the cells, mitochondrial reactive oxygen species was measured by FACS.
FIGS. 11 and 12 show mitochondrial reactive oxygen species changes in the macrophage when treated with compounds 6 and 27, respectively (in order from left in the figure: Untreatment, LPS/ATP, LPS/ATP+1 μM compound, LPS/ATP+5 μM compound, and LPS/ATP+10 μM compound).

[2] = system: primary bone marrow-derived macrophages (BMDMs); experiment: NAD+ measurement in macrophages after LPS/ATP; assay type: cell-based, C57BL/6 mouse; settings: LPS/ATP + 1, 5, 10 μM compound
Description: (§1) The primary bone marrow-derived macrophages (BMDMs) isolated from C57BL/6 mouse were incubated in DMEM medium involving macrophage colony-stimulating factor (M-CSF; R&D Systems, 416-ML) during 3 to 5 days. NAD^+ production and NAD^+/NADH ratio were measured in isolated BMDMs through using NAD/NADH Assay Kit(ab65348) supplied by Abcam company. All assays were performed according to the manufacturer's product manual.
FIGS. 1 to 5 show NAD^+ changes in the macrophage when treated with compounds 6, 16, 17, 22 and 27 respectively (in order from left in the figure: Untreatment, LPS/ATP, LPS/ATP+1 μM compound, LPS/ATP+5 μM compound, and LPS/ATP+10 μM compound).

[3] = system: primary bone marrow-derived macrophages (BMDMs); experiment: ATP measurement in LPS-activated macrophages; assay type: cell-based, C57BL/6 mouse; settings: LPS + 1, 5, 10 μM compound
Description: The primary bone marrow-derived macrophages (BMDMs) isolated from C57BL/6 mouse were incubated in DMEM medium involving macrophage colony-stimulating factor (M-CSF; R&D Systems, 416-ML) during 3 to 5 days. ATP content in the cell was measured through using ATP colorimetric/fluorometric kit after activation of macrophages by treatment of 100 ng/mL LPS in DMEM medium including […]. All assays were performed according to the manufacturer's product manual.
FIGS. 13 to 17 show the measurement of ATP amounts in the macrophage when treated with Compounds 6, 16, 17, 22 and 27 respectively (in order from left in the figure: Untreatment, LPS/ATP, LPS/ATP+1 μM compound, LPS/ATP+5 μM compound, and LPS/ATP+10 μM compound).

[4] = system: primary bone marrow-derived macrophages (BMDMs); experiment: OCR (oxygen consumption rate) measurement, Seahorse XF24; assay type: cell-based, C57BL/6 mouse; settings: macrophages after treatment of LPS and ATP
Description: The primary bone marrow-derived macrophages (BMDMs) isolated from C57BL/6 mouse were incubated in DMEM medium involving macrophage colony-stimulating factor (M-CSF; R&D Systems, 416-ML) during 3 to 5 days. OCR was measured using Seahorse XF24 Extracellular Flux Analyzer in isolated bone marrow-derived macrophages.

[5] = system: primary bone marrow-derived macrophages (BMDMs); experiment: NAD+/NADH measurement in macrophages after LPS/ATP; assay type: cell-based, C57BL/6 mouse; settings: LPS/ATP + 1, 5, 10 μM compound
Description: as §1, with “ratio was” for “ratio were”
FIGS. 6 to 10 show NAD^+/NADH ratio changes in the macrophage when treated with compounds 6, 16, 17, and 27 respectively (in order from left in the figure: Untreatment, LPS/ATP, LPS/ATP+1 μM compound, LPS/ATP+5 μM compound, and LPS/ATP+10 μM).

[6] = system: DSS-induced acute colitis mouse model; experiment: Efficacy in ulcerative colitis mouse model (DSS-induced acute colitis); assay type: in vivo, C57BL/6 female mouse; settings: 5% DSS for 6 days
Description: DSS-induced acute colitis mouse model was prepared using 6-week-old C57BL/6 female mouse in the following method from Opal S M et al., Jama., 309(11):1154-1162(2013) and Hotchkiss R S et al., Journal of immunology., 176(9):5471-5477(2006).
The clinical score in colitis were measured daily for body weight, rectal bleeding, total bleeding loss, and fecal concentration during colitis induction.
For immunohistochemistry of tissue section, mouse spleen, lung and colon were fixed using 10% formalin and embedded in paraffin. Paraffin sections were cut to a thickness of 4 μm, and H&E(hematoxylin and eosin) staining was performed. The histopathological score was measured in accordance with the criteria described in Osuchowski M F, et al., Journal of Immunology, 177(3):1967-74(2006); and Liu W, et al., Cell Research, 25(6): 691-706(2015).
The sandwich ELISAs and MPO assay were performed according to conventional methods in this field. TNF-α, IL-6, IL-1β, IL-18 ELISA(sandwich ELISAs) were performed using BD OptEIA ELISA Kit and MPO assay was performed using MPO Activity assay kit(ab105136) of Abcam company.
The data obtained from independent experiment (means±SD) was analyzed by using two-tailed Student's t-test. The differences were considered significant in p<0.05. For survival comparison, the results were graphically described and analyzed according to kaplan-Meier survival analysis, that is, the product-limit method, using log-rank(Mantel-Cox) tests (Prism, version 5.0, GraphPad Software).

[7] = colon tissue homogenate, treated during 20 days
[8] = treated during 10 days, vs non-treated mouse

Chain of NQO1 (P15559 whole entry, species assumed): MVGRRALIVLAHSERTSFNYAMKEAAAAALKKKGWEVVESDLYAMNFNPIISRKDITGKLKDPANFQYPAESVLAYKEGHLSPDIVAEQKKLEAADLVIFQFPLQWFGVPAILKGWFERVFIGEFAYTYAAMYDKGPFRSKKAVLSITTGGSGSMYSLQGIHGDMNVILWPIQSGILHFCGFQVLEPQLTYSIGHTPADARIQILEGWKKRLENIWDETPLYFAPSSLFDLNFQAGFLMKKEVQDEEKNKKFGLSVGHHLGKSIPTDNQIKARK

Q: For `O=C1C(=O)c2c(n(-c3ccccc3)[nH]c2=O)-c2ccccc21` [Compound 1], which “NQO1 Activity” value (NQO1; Compound 5 μM) is on record?
A: 180 nmol of reduced Cytochrome C/min/μg NQO1 Protein

Q: Which “NQO1 Activity” value (NQO1; Compound 0.2 μM) does the source give for `CC(C)Oc1nn(-c2ccccc2)c2c1C(=O)C(=O)c1ccccc1-2` [Compound 2] here?
A: 3531 nmol of reduced Cytochrome C/min/μg NQO1 Protein

Q: `CC(C)n1c(=O)c2c(n1C)-c1ccccc1C(=O)C2=O` [Compound 3] was tested. Which “NQO1 Activity” value (NQO1; Compound 5 μM) did it give?
A: 3066 nmol of reduced Cytochrome C/min/μg NQO1 Protein

Q: How did the “NQO1 Activity” value (NQO1; Compound 5 μM) turn out when `Cn1c(=O)c2c(n1-c1ccccc1)-c1ccccc1C(=O)C2=O` [Compound 5] was run?
A: 2602 nmol of reduced Cytochrome C/min/μg NQO1 Protein

Q: With `COc1nn(-c2ccccc2)c2c1C(=O)C(=O)c1ccccc1-2` [Compound 6] as the compound, how does the “mitochondrial reactive oxygen species amounts” value [1] read?
A: decreased in dose-dependent manner

Q: What about the “NQO1 Activity” value (NQO1; Compound 0.2 μM) of the same compound?
A: 3782 nmol of reduced Cytochrome C/min/μg NQO1 Protein

Q: What about the “NQO1 Activity” value (NQO1; Compound 5 μM) of the same compound?
A: 7706 nmol of reduced Cytochrome C/min/μg NQO1 Protein

Q: What about the “NAD+ production” value [2] of the same compound?
A: increased in dose-dependent manner

Q: What about the ATP amounts [3] of the same compound?
A: increased in dose-dependent manner

Q: What about the “overall mitochondrial OCR” value [4] of the same compound?
A: increased

Q: And the “NAD+/NADH ratio” value [5]?
A: increased in dose-dependent manner

Q: What about the MPO activity [6, 7] of the same compound?
A: decreased

Q: And the “cytokine expressions (TNF-α, IL-6, IL-1β and IL-18, ELISA)” value [6, 7]?
A: decreased

Q: What about the “expressions of sirtuin 1 and sirtuin 7” value [6, 7] of the same compound?
A: significantly increased

Q: What about the “histological finding of colon tissue (immunohistochemistry, histological score, H&E)” value ([6]; treated during 7 days, vs non-treated colon tissue) of the same compound?
A: significantly improved than non-treated colon tissue

Q: What about the “colitis clinic scores (body weight, stool consistency, bleeding combined)” value [6, 8] of the same compound?
A: significantly ameliorated compared with non-treated mouse

Q: What about the “degree of body weight loss” value [6, 8] of the same compound?
A: significantly slower than non-treated mouse

Q: What about the survival rates ([6]; treated during 20 days, vs non-treated mouse) of the same compound?
A: higher than non-treated mouse

Q: With `CCn1c(=O)c2c(n1-c1ccccc1)-c1ccccc1C(=O)C2=O` [Compound 7] as the compound, how does the “NQO1 Activity” value (NQO1; Compound 0.2 μM) read?
A: 2246 nmol of reduced Cytochrome C/min/μg NQO1 Protein

Q: With `CCOc1nn(-c2ccccc2)c2c1C(=O)C(=O)c1ccccc1-2` [Compound 8] as the compound, how does the “NQO1 Activity” value (NQO1; Compound 0.2 μM) read?
A: 3768 nmol of reduced Cytochrome C/min/μg NQO1 Protein

Q: How did the “NQO1 Activity” value (NQO1; Compound 0.2 μM) turn out when `CC(C)Cn1c(=O)c2c(n1-c1ccccc1)-c1ccccc1C(=O)C2=O` [Compound 9] was run?
A: 2474 nmol of reduced Cytochrome C/min/μg NQO1 Protein

Q: With `CC(C)COc1nn(-c2ccccc2)c2c1C(=O)C(=O)c1ccccc1-2` [Compound 10] as the compound, how does the “NQO1 Activity” value (NQO1; Compound 0.2 μM) read?
A: 3455 nmol of reduced Cytochrome C/min/μg NQO1 Protein

Q: With `CC(C)CCn1c(=O)c2c(n1-c1ccccc1)-c1ccccc1C(=O)C2=O` [Compound 11] as the compound, how does the “NQO1 Activity” value (NQO1; Compound 0.2 μM) read?
A: 2839 nmol of reduced Cytochrome C/min/μg NQO1 Protein

Q: For `CC(C)CCOc1nn(-c2ccccc2)c2c1C(=O)C(=O)c1ccccc1-2` [Compound 12], which “NQO1 Activity” value (NQO1; Compound 0.2 μM) is on record?
A: 2981 nmol of reduced Cytochrome C/min/μg NQO1 Protein

Q: Which “NQO1 Activity” value (NQO1; Compound 0.2 μM) does the source give for `CC(C)n1c(=O)c2c(n1-c1ccccc1)-c1ccccc1C(=O)C2=O` [Compound 13] here?
A: 2137 nmol of reduced Cytochrome C/min/μg NQO1 Protein

Q: How did the “NQO1 Activity” value (NQO1; Compound 0.2 μM) turn out when `CC(C)n1c2c(c(=O)n1C)C(=O)C(=O)c1ccccc1-2` [Compound 16] was run?
A: 4441 nmol of reduced Cytochrome C/min/μg NQO1 Protein

Q: What about the “NAD+ production” value [2] of the same compound?
A: increased in dose-dependent manner

Q: And the “NAD+/NADH ratio” value [5]?
A: increased in dose-dependent manner

Q: With `COc1nn(C(C)C)c2c1C(=O)C(=O)c1ccccc1-2` [Compound 17] as the compound, how does the “NQO1 Activity” value (NQO1; Compound 0.2 μM) read?
A: 5843 nmol of reduced Cytochrome C/min/μg NQO1 Protein

Q: What about the “NAD+ production” value [2] of the same compound?
A: increased in dose-dependent manner

Q: What about the “NAD+/NADH ratio” value [5] of the same compound?
A: increased in dose-dependent manner

Q: `COc1nn(-c2ccc(C(F)(F)F)cc2)c2c1C(=O)C(=O)c1ccccc1-2` [Compound 18] was tested. Which “NQO1 Activity” value (NQO1; Compound 0.2 μM) did it give?
A: 4232 nmol of reduced Cytochrome C/min/μg NQO1 Protein

Q: For `COc1nn(-c2ccc(F)cc2)c2c1C(=O)C(=O)c1ccccc1-2` [Compound 19], which “NQO1 Activity” value (NQO1; Compound 0.2 μM) is on record?
A: 4303 nmol of reduced Cytochrome C/min/μg NQO1 Protein

Q: For `Cn1c2c(c(=O)n1-c1ccccc1)C(=O)C(=O)c1ccccc1-2` [Compound 20], which “NQO1 Activity” value (NQO1; Compound 0.2 μM) is on record?
A: 568 nmol of reduced Cytochrome C/min/μg NQO1 Protein

Q: How did the “NQO1 Activity” value (NQO1; Compound 0.2 μM) turn out when `Cn1c(=O)c2c(n1-c1ccccc1)-c1ccc(F)cc1C(=O)C2=O` [Compound 21] was run?
A: 1426 nmol of reduced Cytochrome C/min/μg NQO1 Protein

Q: With `COc1nn(-c2ccccc2)c2c1C(=O)C(=O)c1cc(F)ccc1-2` [Compound 22] as the compound, how does the “NQO1 Activity” value (NQO1; Compound 0.2 μM) read?
A: 6978 nmol of reduced Cytochrome C/min/μg NQO1 Protein

Q: And the “NAD+ production” value [2]?
A: increased in dose-dependent manner

Q: What about the “NAD+/NADH ratio” value [5] of the same compound?
A: increased in dose-dependent manner

Q: Which “NQO1 Activity” value (NQO1; Compound 0.2 μM) does the source give for `COc1cn(-c2ccccc2)c2c1C(=O)C(=O)c1cc([N+](=O)[O-])ccc1-2` [Compound 23] here?
A: 456 nmol of reduced Cytochrome C/min/μg NQO1 Protein

Q: Which “NQO1 Activity” value (NQO1; Compound 0.2 μM) does the source give for `COc1nn(-c2ccccc2)c2c1C(=O)C(=O)c1cc(N)ccc1-2` [Compound 24] here?
A: 4336 nmol of reduced Cytochrome C/min/μg NQO1 Protein

Q: How did the “NQO1 Activity” value (NQO1; Compound 0.2 μM) turn out when `COc1cn(-c2ccccc2)c2c1C(=O)C(=O)c1cc(Br)ccc1-2` [Compound 25] was run?
A: 1676 nmol of reduced Cytochrome C/min/μg NQO1 Protein
